Marks after values point to notes of the source that are not given here.
How the values were obtained:
amyloid plaques = test: Number of amyloid plaques (thioflavin T) in 5×FAD mouse brain; assay type: in vivo; settings: 1 mg/kg twice a week for 3 months; for Amyloid plaque number in hippocampus: compared to controls
Description: 5×FAD mice received chronic treatments with drugs or vehicle according to 2 different protocols. In each experiment, drugs or vehicle solution were administered i.p. twice a week (1 mg/kg). In “Protocol 1”, mice (n=6-7 mice per group) were treated with compounds for two months, from 2 to 4 months of age. In “Protocol 2”, mice (n=7) were treated with compounds for three months, from 1 month to 4 months of age. At the end of each protocol, mice were anesthetized with a mixture of 100 mg/kg ketamine and 10 mg/kg xylazine in saline solution and perfused transcardially with PBS. Brains were quickly isolated on ice, the olfactory bulbs and cerebellum removed and the two hemispheres divided. One hemisphere was frozen on dry ice and stored at −80° C. for biochemical analysis, while the other was post-fixed in 4% PFA for immunohistochemistry (IHC).
Thirty-micrometer-thick sections were cut using a vibratome (Microm HM 650V, Thermo Scientific, Saint Herblain, France) and stored in cryoprotectant medium at −20° C. For the labeling of amyloid plaques, free-floating tissue sections of frontal cortex, hippocampus and entorhinal cortex (coordinates from the bregma: frontal cortex=1.98 mm, hippocampus=−1.94 mm, entorhinal cortex=−3.08 mm) were extensively washed in PBS and then incubated in blocking solution (PBS; 3% BSA; 0.1% Triton X-100) for 1 h. Sections were stained with Hoechst dye (1:1000, Life Technologies, Saint Aubin, France) for 15 minutes to detect cell nuclei and then with freshly prepared thioflavin T solution (#T3516-5G, Sigma-Aldrich) (final concentration: 0.01 mg/ml in blocking buffer) for 15 minutes. After washing in 70% ethanol for 5 minutes, samples were mounted on poly-lysine slides with coverslips. For GFAP (glial fibrillary acidic protein) staining, free-floating brain sections were blocked as before and incubated with polyclonal rabbit anti-GFAP (1:1000, Z0334, Dako, Les Ullis, France) at 4° C. overnight. After thioflavin T staining and washing with 70% ethanol, the secondary Alexafluor 594 goat anti-rabbit antibody (1:1000, A11012, Life Technologies) was added for 2 h. PBS washes and mounting were performed as described before.
Images were acquired with an Axiolmager Z1 microscope (Carl Zeiss S.A.S., Marly le Roi, France). Analysis of thioflavin T staining was performed blindly and data are presented as the mean number of particles per mm^2 in two to three tissue sections from the same brain area/animal (Image J software). GFAP expression was quantified using Image J software and results are expressed as area fractions.
28 female 5×FAD mice (C57BL/6J genetic background) were used in this study. Mice received vehicle or compounds (1 mg/kg) i.p., twice a week for three months, from 1 to 4 months of age.
Anti-amyloid effect. Frontal cortex, hippocampus and entorhinal cortex were analyzed as representative areas of 5×FAD mouse brain (frontal, median and caudal sections) and of human brain regions that are affected early by Alzheimer's disease and are highly enriched in amyloid deposits.

Aβ40 = Aβ40 levels in brain extracts of 5×FAD mice (ELISA); assay type: in vivo, mouse; settings: brain extract; 1 mg/kg i.p. twice a week for two months, 2 to 4 months of age
Description: (§1) Animal experiments were carried out in accordance with the Directive by the Council of the European Communities of Nov. 24, 1986 (86/609/EEC). All efforts were made to minimize animal suffering and to reduce the number of mice used. The generation of 5×FAD mice was described in Oakley et al. (2006) J. Neurosci. 26:10129-10140. These transgenic mice overexpress both human APP (695) harboring the Swedish (K670N, M671L), Florida (1716V) and London (V7171) familial AD (FAD) mutations and human Presenilin 1 (PS1) harboring the two FAD mutations M146L and L286V. Expression of both transgenes is regulated by neuronal-specific elements of the mouse Thy1 promoter. The 5×FAD strain (B6/SJL genetic background) was maintained by crossing hemizygous transgenic mice with B6/SJL F1 breeders. The 5×FAD strain (C57BL/6J genetic background) was maintained by crossing hemizygous transgenic mice with C57BL/6J F1 breeders. All animals were genotyped by PCR using tail genomic DNA. Transgenic and WT mice were bred in our animal facility, had access to food and water ad libitum and were housed under a 12 h light-dark cycle at 22-24° C. Female 5×FAD mice were used in this study. For each experiment, the age of mice is indicated in months (with a two-week range).
(§2) Compounds were resuspended in DMSO (37.5 μg/μl, stored at −20° C.) and freshly diluted 1:250 in 0.9% NaCl prior administration. Vehicle solution (0.9% NaCl, 0.4% DMSO) was used as control.
(§3) 5×FAD mice received chronic treatments with drugs or vehicle according to 2 different protocols. In each experiment, drugs or vehicle solution were administered i.p. twice a week (1 mg/kg). In “Protocol 1”, mice (n=6-7 mice per group) were treated with compounds for two months, from 2 to 4 months of age. In “Protocol 2”, mice (n=7) were treated with compounds for three months, from 1 month to 4 months of age. At the end of each protocol, mice were anesthetized with a mixture of 100 mg/kg ketamine and 10 mg/kg xylazine in saline solution and perfused transcardially with PBS. Brains were quickly isolated on ice, the olfactory bulbs and cerebellum removed and the two hemispheres divided. […]
(§4) ELISA kits from IBL International (Hamburg, Germany) for the dosage of Aβ40 (human amyloid β (1-40) assay kit, #27713) or Aβ42 (human amyloid β (1-42) assay kit, #27719) were used according to the manufacturer's instructions. Reactions were read at 620 nm and 450 nm using an Infinite 2000 luminescence counter. The obtained values were normalized to the protein concentration of each sample, measured using a BCA protein assay (Sigma-Aldrich). […]
(§5) Aβ40 and Aβ42 were quantified from brain extract in soluble and insoluble fractions. […]

Aβ42 = Aβ42 levels in brain extracts of 5×FAD mice (ELISA); assay type: in vivo, mouse; settings: brain extract; 1 mg/kg i.p. twice a week for two months, 2 to 4 months of age
Description: as §1, §2, §3, §4, §5

| Compound | Amyloid plaque number in hippocampus (amyloid plaques) | reduction of the number of amyloid plaques in entorhinal cortex (amyloid plaques; compared to vehicle) [%] | Aβ40, insoluble fraction (% of controls) (Aβ40) | Aβ40, soluble fraction (% of controls) (Aβ40) | Aβ42, insoluble fraction (% of controls) (Aβ42) | Aβ42, soluble fraction (% of controls) (Aβ42) | reduction of the number of amyloid plaques in frontal cortex (amyloid plaques; compared to vehicle) [%] |
| --- | --- | --- | --- | --- | --- | --- | --- |
| COc1cc(N)c(F)cc1C(=O)CCC1CCN(CC2CCCCC2)CC1 [Flucopride] | not significantly different | 28±6 | 97.16 % of controls | 110.51 % of controls | 73.16 % of controls | 30.19**** % of controls | – |
| COc1cc(N)c(Cl)cc1C(=O)CCC1CCN(CC2CCCCC2)CC1 [Donecopride] | not significantly different | 24±4 | 79.97 % of controls | 110.18 % of controls | 67.85* % of controls | 65.93* % of controls | 16±3 |
